Data reported in US20260297060A1, “COMPOUNDS FOR THE DEGRADATION OF MUTANT BRAF” (C4 THERAPEUTICS, INC., priority 2023, published 2026).
Read-outs that look alike come from different tables or passages of the source.

Experiments:
BRAF V600E = target: T1, BRAF V600E (Homo sapiens, UniProt P15056+Q96SW2, V600E); test: BRAF V600E HiBiT Degradation Assay; format: cell-based; details: A375.10 cells, BRAF V600E
T1 construct: knock-in of the HiBiT tag to the endogenous BRAF V600E locus; host or cells: A375.10 (A375 clonal line, CRISPR HiBiT knock-in at the endogenous BRAF V600E locus)
Method in brief: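 Endogenous HiBiT knock-in on BRAF V600E in A375 cells (clone A375.10); 11-point half-log series, top 10 μM, 2, 6 or 24 h at 37° C. Lytic HiBiT luminescence, background-subtracted, normalized to DMSO; 4-parameter fit gives DC50, Emax (residual protein) and IP (inflection point).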

A375-NRAS^Q61K cells = test: CTGlo Cell Viability Assay, A375-NRAS^Q61K (A375.11) cells, 96 hours; format: cell-based, human; details: A375.11 (A375-NRAS^Q61K) cells; for Emax / CTGlo A375.11 96 hours Emax: lowest % viability achieved
Method in brief: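 A375 cells carrying BRAF V600E and NRAS Q61K were seeded at 250 cells/well with a 10-point half-log dose series (max 10 μM final). After 96 h at 37 °C, viability was read as ATP luminescence (CellTiter-Glo), background-subtracted and normalized to DMSO (100%). GI50 from 4-parameter fit; Emax is the lowest % viability.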

[1] = 2 hours, inflection point, read-out: HiBiT-Degradation A375.10 BRAF 2 hours IP
[2] = 2 hours, read-out: HiBiT-Degradation A375.10 BRAF 2 hours DC50
[3] = 2 hours, residual protein remaining, read-out: HiBiT-Degradation A375.10 BRAF 2 hours Emax
[4] = HiBiT, 24 hours, read-out: HiBiT-Degradation A375.10 BRAF 24 hours DC50
[5] = HiBiT, 24 hours, read-out: HiBiT-Degradation A375.10 BRAF 24 hours Emax
[6] = HiBiT, 24 hours, read-out: HiBiT-Degradation A375.10 BRAF 24 hours IP
[7] = 2 hours, residual protein remaining

T1 sequence (P15056 whole entry V600E): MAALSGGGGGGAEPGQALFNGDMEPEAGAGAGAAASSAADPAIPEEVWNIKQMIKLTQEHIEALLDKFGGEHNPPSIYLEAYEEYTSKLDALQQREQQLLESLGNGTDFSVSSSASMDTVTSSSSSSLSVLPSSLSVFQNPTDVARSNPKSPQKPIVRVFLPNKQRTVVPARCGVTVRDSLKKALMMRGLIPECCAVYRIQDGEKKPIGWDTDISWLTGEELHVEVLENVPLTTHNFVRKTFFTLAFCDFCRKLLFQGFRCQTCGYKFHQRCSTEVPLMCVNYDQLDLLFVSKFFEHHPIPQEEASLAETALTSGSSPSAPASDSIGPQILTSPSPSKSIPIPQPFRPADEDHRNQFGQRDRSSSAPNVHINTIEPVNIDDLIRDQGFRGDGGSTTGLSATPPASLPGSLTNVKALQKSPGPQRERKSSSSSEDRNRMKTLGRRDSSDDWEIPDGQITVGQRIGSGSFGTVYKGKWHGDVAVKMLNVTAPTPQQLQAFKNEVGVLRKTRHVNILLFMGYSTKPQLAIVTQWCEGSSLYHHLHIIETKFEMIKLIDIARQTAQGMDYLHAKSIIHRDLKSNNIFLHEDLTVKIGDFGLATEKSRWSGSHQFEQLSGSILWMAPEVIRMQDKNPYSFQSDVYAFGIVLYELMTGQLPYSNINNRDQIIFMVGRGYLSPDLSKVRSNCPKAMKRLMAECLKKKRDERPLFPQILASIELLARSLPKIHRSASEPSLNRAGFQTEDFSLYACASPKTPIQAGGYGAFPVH
T1 sequence (Q96SW2 whole entry): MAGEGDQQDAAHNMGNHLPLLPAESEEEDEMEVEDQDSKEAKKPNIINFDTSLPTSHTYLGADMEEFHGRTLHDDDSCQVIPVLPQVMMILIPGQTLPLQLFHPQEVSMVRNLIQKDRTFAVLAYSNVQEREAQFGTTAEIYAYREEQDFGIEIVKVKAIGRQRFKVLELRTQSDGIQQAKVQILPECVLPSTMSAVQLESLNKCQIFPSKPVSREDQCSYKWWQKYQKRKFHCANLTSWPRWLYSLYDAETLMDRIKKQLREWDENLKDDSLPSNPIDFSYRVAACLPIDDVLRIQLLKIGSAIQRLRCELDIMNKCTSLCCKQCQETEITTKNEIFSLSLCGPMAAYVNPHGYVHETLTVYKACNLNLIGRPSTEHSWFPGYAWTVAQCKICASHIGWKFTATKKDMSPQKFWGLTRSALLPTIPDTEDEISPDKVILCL
T1 sequence (Q16531 whole entry partner): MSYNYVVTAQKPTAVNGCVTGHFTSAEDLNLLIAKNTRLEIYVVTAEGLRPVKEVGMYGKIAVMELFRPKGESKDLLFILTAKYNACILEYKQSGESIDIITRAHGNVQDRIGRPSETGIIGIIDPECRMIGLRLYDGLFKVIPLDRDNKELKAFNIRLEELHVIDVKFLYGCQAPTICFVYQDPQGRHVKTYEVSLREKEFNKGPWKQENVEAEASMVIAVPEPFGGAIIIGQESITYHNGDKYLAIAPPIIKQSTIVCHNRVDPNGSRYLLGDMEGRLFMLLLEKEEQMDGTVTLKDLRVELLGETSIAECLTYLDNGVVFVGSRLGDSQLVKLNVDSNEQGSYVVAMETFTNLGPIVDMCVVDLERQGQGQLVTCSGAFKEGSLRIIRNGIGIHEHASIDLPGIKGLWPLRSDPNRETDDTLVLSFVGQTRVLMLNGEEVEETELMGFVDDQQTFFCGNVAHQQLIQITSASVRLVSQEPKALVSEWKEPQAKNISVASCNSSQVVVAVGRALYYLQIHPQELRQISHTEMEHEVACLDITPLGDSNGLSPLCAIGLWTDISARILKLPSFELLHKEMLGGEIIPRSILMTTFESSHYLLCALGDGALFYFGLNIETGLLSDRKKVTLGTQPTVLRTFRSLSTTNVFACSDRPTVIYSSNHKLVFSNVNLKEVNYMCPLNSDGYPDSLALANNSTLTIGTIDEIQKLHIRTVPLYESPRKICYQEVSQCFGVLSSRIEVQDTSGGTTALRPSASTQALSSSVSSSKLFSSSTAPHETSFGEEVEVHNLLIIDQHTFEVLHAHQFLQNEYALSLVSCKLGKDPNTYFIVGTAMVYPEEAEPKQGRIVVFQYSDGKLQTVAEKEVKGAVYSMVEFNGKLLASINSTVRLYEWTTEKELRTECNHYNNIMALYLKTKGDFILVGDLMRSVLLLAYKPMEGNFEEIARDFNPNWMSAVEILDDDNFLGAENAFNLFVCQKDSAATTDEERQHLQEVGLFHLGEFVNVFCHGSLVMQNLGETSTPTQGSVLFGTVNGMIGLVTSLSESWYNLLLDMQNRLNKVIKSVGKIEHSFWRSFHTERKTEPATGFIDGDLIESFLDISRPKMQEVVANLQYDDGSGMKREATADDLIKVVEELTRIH

SMILES	DC50 (BRAF V600E; [1]) [nM]	DC50 (BRAF V600E; [2]) [nM]	Emax (BRAF V600E; [3]) [%]	DC50 (BRAF V600E; [4]) [nM]	Emax (BRAF V600E; [5]) [%]	DC50 (BRAF V600E; [6]) [nM]	GI50 (A375-NRAS^Q61K cells; Homo sapiens, 96 h) [nM]	Emax (A375-NRAS^Q61K cells; Homo sapiens, 96 h) [%]	HiBiT-Degradation A375.10 BRAF 2 hours Emax (BRAF V600E; [7])	GI50 (A375-NRAS^Q61K cells) [nM]	CTGlo A375.11 96 hours Emax (A375-NRAS^Q61K cells)	HiBiT-Degradation A375.10 BRAF 24 hours Emax (BRAF V600E; HiBiT, 24 hours)	DC50 (BRAF V600E; 6 hours, inflection point, read-out: HiBiT-Degradation A375.10 BRAF 6 hours IP) [nM]	DC50 (BRAF V600E; 6 hours, read-out: HiBiT-Degradation A375.10 BRAF 6 hours DC50) [nM]	HiBiT-Degradation A375.10 BRAF 6 hours Emax (BRAF V600E; 6 hours, residual protein remaining)
CCN(C)S(=O)(=O)Nc1ccc(F)c(Oc2ccc3ncn([C@H]4COC5(C4)CN(C4CCN(c6cc7c(cc6F)c(N6CCC(=O)NC6=O)nn7C)CC4)C5)c(=O)c3c2)c1C#N [Compound 309, (7R)-7-[6-[2-cyano-3-[[ethyl(methyl)sulfamoyl]amino]-6-fluoro-phenoxy]-4-oxo-quinazolin-3-yl]-2-[1-[3-(2,4-dioxohexahydropyrimidin-1-yl)-5-fluoro-1-methyl-indazol-6-yl]-4-piperidyl]-5-oxa-2-azaspiro[3.4]octane]	< 1000	> 10000	50 to 90	< 1000	< 50	< 1000	> 10000	50 to 90							
CN(CCO)S(=O)(=O)Nc1ccc(F)c(Oc2ccc3ncn([C@H]4COC5(CCC(N6CCC(c7cc8c(cc7F)c(N7CCC(=O)NC7=O)nn8C)C(F)(F)C6)CC5)C4)c(=O)c3c2)c1C#N (single isomer, unassigned) [Compound 214]	< 1000	< 1000							*** (<=50%)	< 1000	*** (<=50%)				
CCN(C)S(=O)(=O)Nc1ccc(F)c(Oc2ccc3ncn([C@H]4COC5(CCN(CC6CCN(c7cc8c(cc7F)c(N7CCC(=O)NC7=O)nn8C)CC6)CC5)C4)c(=O)c3c2)c1C#N [Compound 251, (3R)-3-[6-[2-cyano-3-[[ethyl(methyl)sulfamoyl]amino]-6-fluoro-phenoxy]-4-oxo-quinazolin-3-yl]-8-[[1-[3-(2,4-dioxohexahydropyrimidin-1-yl)-5-fluoro-1-methyl-indazol-6-yl]-4-piperidyl]methyl]-1-oxa-8-azaspiro[4.5]decane]	< 1000	< 1000	50 to 90				1000 to 10000	50 to 90							
CN(CCO)S(=O)(=O)Nc1ccc(F)c(Oc2ccc3ncc([C@@H]4COC5(CCN(C6CCC(c7cc8c(cc7F)c(N7CCC(=O)NC7=O)nn8C)CC6)CC5)C4)nc3c2)c1C#N (single isomer, unassigned) [Compound 174]	< 1000	< 1000	< 50				< 1000	50 to 90							
CN(CCO)S(=O)(=O)Nc1ccc(F)c(Oc2ccc3ncc(C4CC5(CCN(C6CCC(c7cc8c(cc7F)c(N7CCC(=O)NC7=O)nn8C)CC6)CC5)C4)nc3c2)c1C#N (single isomer, unassigned) [Compound 294, 7-[2-cyano-6-fluoro-3-[[2-hydroxyethyl(methyl)sulfamoyl]amino]phenoxy]-2-[7-[4-[3-(2,4-dioxohexahydropyrimidin-1-yl)-5-fluoro-1-methyl-indazol-6-yl]cyclohexyl]-7-azaspiro[3.5]nonan-2-yl]quinoxaline]	< 1000	< 1000	50 to 90				1000 to 10000				** (<90% and >50%)				
CCN(C)S(=O)(=O)Nc1ccc(F)c(Oc2ccc3ncc(C4CC5(C4)CN(C4CCC(c6cc7c(cc6F)c(N6CCC(=O)NC6=O)nn7C)CC4)C5)nc3c2)c1C#N (single isomer, unassigned) [Compound 298, 7-[2-cyano-3-[[ethyl(methyl)sulfamoyl]amino]-6-fluoro-phenoxy]-2-[2-[4-[3-(2,4-dioxohexahydropyrimidin-1-yl)-5-fluoro-1-methyl-indazol-6-yl]cyclohexyl]-2-azaspiro[3.3]heptan-6-yl]quinoxaline]	< 1000	< 1000		< 1000		< 1000			*** (<=50%)	< 1000	*** (<=50%)	*** (<=50%)			
CCN(C)S(=O)(=O)Nc1ccc(F)c(Oc2ccc3ncc(OCC4CCN(C5CCC(c6ccc(NC7CCC(=O)NC7=O)cc6F)CC5)CC4)nc3c2)c1C#N (single isomer, unassigned) [Compound 116, 7-[2-cyano-3-[[ethyl(methyl)sulfamoyl]amino]-6-fluoro-phenoxy]-2-[[1-[4-[4-[(2,6-dioxo-3-piperidyl)amino]-2-fluoro-phenyl]cyclohexyl]-4-piperidyl]methoxy]quinoxaline]	< 1000	1000 to 10000	50 to 90					50 to 90		> 10000					
CCN(C)S(=O)(=O)Nc1ccc(F)c(Oc2ccc3ncn([C@H]4COC5(CCC(N6CCC(c7ccc(NC8CCC(=O)NC8=O)cc7F)C(F)(F)C6)CC5)C4)c(=O)c3c2)c1C#N (single isomer, unassigned) [Compound 190]	< 1000	< 1000	< 50				1000 to 10000	< 50							
CCN(C)S(=O)(=O)Nc1ccc(F)c(Oc2ccc3ncn([C@H]4CO[C@@]5(CCN(C6CCC(c7cc8c(cc7F)c(N7CCC(=O)NC7=O)nn8C)CC6)C5)C4)c(=O)c3c2)c1C#N (single isomer, unassigned) [Compound 292]	< 1000	< 1000	< 50	< 1000	< 50	< 1000	< 1000	50 to 90							
CCN(C)S(=O)(=O)Nc1ccc(F)c(Oc2ccc3ncc(CCC4CCN(C5CCC(c6cc7c(cc6F)c(N6CCC(=O)NC6=O)nn7C)CC5)CC4)nc3c2)c1C#N (single isomer, unassigned) [Compound 129, 7-[2-cyano-3-[[ethyl(methyl)sulfamoyl]amino]-6-fluoro-phenoxy]-2-[2-[1-[4-[3-(2,4-dioxohexahydropyrimidin-1-yl)-5-fluoro-1-methyl-indazol-6-yl]cyclohexyl]-4-piperidyl]ethyl]quinoxaline]	< 1000	< 1000							** (<90% and >50%)	1000 to 10000	** (<90% and >50%)				
CCN(C)S(=O)(=O)Nc1ccc(F)c(Oc2ccc3ncn(C4CC5(CCN(C6CCC(c7ccc(NC8CCC(=O)NC8=O)cc7F)CC6)CC5)C4)c(=O)c3c2)c1C#N (single isomer, unassigned) [Compound 7, 6-[2-cyano-3-[[ethyl(methyl)sulfamoyl]amino]-6-fluoro-phenoxy]-3-[7-[4-[4-[(2,6-dioxo-3-piperidyl)amino]-2-fluoro-phenyl]cyclohexyl]-7-azaspiro[3.5]nonan-2-yl]-4-oxo-quinazoline]	< 1000	< 1000		< 1000		< 1000			*** (<=50%)	< 1000	*** (<=50%)	*** (<=50%)	< 1000	< 1000	*** (<=50%)
CCN(C)S(=O)(=O)Nc1ccc(F)c(Oc2ccc3ncn(C4CC5(C4)CN(C4CC6(C4)CN(c4cc7c(cc4F)c(N4CCC(=O)NC4=O)nn7C)C6)C5)c(=O)c3c2)c1C#N (stereo not drawn) [Compound 305, 6-[2-cyano-3-[[ethyl(methyl)sulfamoyl]amino]-6-fluoro-phenoxy]-3-[2-[2-[3-(2,4-dioxohexahydropyrimidin-1-yl)-5-fluoro-1-methyl-indazol-6-yl]-2-azaspiro[3.3]heptan-6-yl]-2-azaspiro[3.3]heptan-6-yl]-4-oxo-quinazoline]	< 1000	< 1000	< 50	< 1000	< 50	< 1000	< 1000	50 to 90							
